Assay results: ChEMBL document CHEMBL5360584, “Sequence-Specific Dual DNA Binding Modes and Cytotoxicities of N-6-Functionalized Norcryptotackieine Alkaloids” (J Nat Prod, 2023)
The source made the active and inactive calls. The rule behind the calls is not given here.

Legend:
Calf thymus DNA [1] = assay: Binding affinity to calf thymus DNA assessed as change in absorption by UV-Vis spectrophotometric analysis; format: nucleic-acid assay; conditions: Bos taurus
Calf thymus DNA [2] = assay: Binding affinity to calf thymus DNA assessed as dissociation constant by UV-Vis spectroscopic analysis; format: nucleic-acid assay, Bos taurus
Calf thymus DNA [3] = assay: Binding affinity to calf thymus DNA assessed as dissociation constant; format: nucleic-acid assay, Bos taurus
Calf thymus DNA [4] = assay: Binding affinity to calf thymus DNA assessed as dissociation constant measured at 337 nm absorbance by UV-Vis spectroscopic analysis; format: nucleic-acid assay, Bos taurus
Calf thymus DNA [5] = assay: Binding affinity to calf thymus DNA assessed as dissociation constant measured at 332 nm absorbance by UV-Vis spectroscopic analysis; format: nucleic-acid assay, Bos taurus
Calf thymus DNA [6] = assay: Binding affinity to calf thymus DNA assessed as dissociation constant by reverse titration method; format: nucleic-acid assay, Bos taurus
HEK293 = assay: Cytotoxicity against human HEK293 cells assessed as reduction in cell viability incubated for 24 hrs by MTT assay; format: functional, cell-based; conditions: HEK293, 24 h
OVCAR-3 = assay: Cytotoxicity against human OVCAR-3 cells assessed as reduction in cell viability incubated for 24 hrs by MTT assay; format: functional, cell-based; conditions: OVCAR-3, 24 h
B16-F10 = assay: Cytotoxicity against mouse B16F10 cells assessed as reduction in cell viability incubated for 24 hrs by MTT assay; format: functional, cell-based; conditions: B16-F10, 24 h
SK-OV-3 = assay: Cytotoxicity against human SK-OV-3 cells assessed as reduction in cell viability incubated for 24 hrs by MTT assay; format: functional, cell-based; conditions: SK-OV-3, 24 h
HeLa = assay: Cytotoxicity against human HeLa cells assessed as reduction in cell viability incubated for 24 hrs by MTT assay; format: functional, cell-based

Q: With `CN(C)CCCCn1c2ccccc2c2cc3ccccc3nc21` as the compound, how does the Activity (Calf thymus DNA [1]) read?
A: The Activity was “Active”.

Q: Which Kd (Calf thymus DNA [2]) does the source give for `C[n+]1c2ccccc2cc2[n-]c3ccccc3c21` [CRYPTOLEPINE] here?
A: Its Kd is 0.24 µM.

Q: And the Kd (Calf thymus DNA [3])?
A: Its Kd is 0.33 µM.

Q: `c1ccc2nc3c(cc2c1)c1ccccc1n3CCCN1CCOCC1` was tested. Which Activity (Calf thymus DNA [1]) did it give?
A: The Activity was “Active”.

Q: For `CN1CCN(CCCn2c3ccccc3c3cc4ccccc4nc32)CC1`, which Activity (Calf thymus DNA [1]) is on record?
A: Its Activity is “Active”.

Q: For `c1ccc(-n2c3ccccc3c3cc4ccccc4nc32)cc1`, which Activity (Calf thymus DNA [1]) is on record?
A: Its Activity is “Active”.

Q: With `c1ccc(Cn2c3ccccc3c3cc4ccccc4nc32)cc1` as the compound, how does the Activity (Calf thymus DNA [1]) read?
A: Its Activity is “Active”.

Q: How did the Activity (Calf thymus DNA [1]) turn out when `CN(CCCn1c2ccccc2c2cc3ccccc3nc21)CCCn1c2ccccc2c2cc3ccccc3nc21` was run?
A: The Activity was “Active”.

Q: How did the Activity (Calf thymus DNA [1]) turn out when `c1ccc2nc3c(cc2c1)c1ccccc1n3CCCN1CCCC1` was run?
A: Its Activity is “Active”.

Q: How did the Activity (Calf thymus DNA [1]) turn out when `CCCCn1c2ccccc2c2cc3ccccc3nc21` was run?
A: The Activity was “Active”.

Q: How did the Activity (Calf thymus DNA [1]) turn out when `c1ccc2nc3c(cc2c1)c1ccccc1n3CCCn1ccnc1` was run?
A: Its Activity is “Active”.

Q: How did the Kd (Calf thymus DNA [2]) turn out when `CN(C)CCCn1c2ccccc2c2cc3ccccc3nc21` was run?
A: Its Kd is 20 µM.

Q: What about the Kd (Calf thymus DNA [4]) of the same compound?
A: The Kd was 120 µM.

Q: And the Activity (Calf thymus DNA [1])?
A: The Activity was “Active”.

Q: And the Kd (Calf thymus DNA [5])?
A: Its Kd is 10 µM.

Q: And the Kd (Calf thymus DNA [6])?
A: Its Kd is 17 µM.

Q: Which Activity (Calf thymus DNA [1]) does the source give for `CN(C)CCn1c2ccccc2c2cc3ccccc3nc21` here?
A: Its Activity is “Active”.

Q: What does the source list for `c1ccc2[nH]c3nc4ccccc4c-3cc2c1`?
A: Activity (Calf thymus DNA [1]): Active; IC50 (HEK293): > 100 µM; IC50 (OVCAR-3): > 100 µM; IC50 (B16-F10): > 100 µM; IC50 (SK-OV-3): > 100 µM; IC50 (HeLa): > 100 µM

Q: How did the Activity (Calf thymus DNA [1]) turn out when `Cn1c2ccccc2c2cc3ccccc3nc21` was run?
A: The Activity was “Active”.

Q: And the IC50 (HEK293)?
A: The IC50 was > 100 µM.

Q: What about the IC50 (OVCAR-3) of the same compound?
A: Its IC50 is > 100 µM.

Q: What about the IC50 (B16-F10) of the same compound?
A: The IC50 was > 100 µM.

Q: What about the IC50 (SK-OV-3) of the same compound?
A: The IC50 was > 100 µM.

Q: What about the IC50 (HeLa) of the same compound?
A: The IC50 was > 100 µM.
